The target of test [1] is KRAS G12V (Homo sapiens (Human), UniProt P01116, G12V). Kind of test: KRAS G12V degradation in SW620 cells (Western blot, DC50). Conditions: 24 hours. Type of test: cell-based. In short, it runs like this:
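SW620 cells (homozygous KRAS G12V) were treated with compound for 24 hours at 37° C. KRAS in lysates was measured by Western blot with fluorescent secondary antibodies and expressed relative to DMSO vehicle (100%). DC50 came from a four-parameter variable-slope dose-response fit.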

The subject of test [2] is SW620 cells. Description: 3D cell growth inhibition of SW620 cells carrying endogenous KRAS G12V mutation (CellTiter-Glo 3D, GI50). It counts as cell-based. Conditions: read-out: SW620 3D cell growth GI50. In short, it runs like this:
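SW620 cells (endogenous KRAS G12V) grown in 3D were dosed next day with compound from DMSO stocks at various concentrations, then incubated 6 days at 37° C.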
(In general: ATP-based viability assays read luminescence as a measure of living cells.)

The target in test [3] is KRAS-G12V/RAF1 (Homo sapiens (Human), UniProt P01116, G12V). Description: KRAS/RAF1 binding inhibition assay (AlphaScreen). In a few lines:
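Binding of GppNHp-loaded KRAS G12V to the RAF1 RBD was measured by AlphaScreen with test compound present in 2% DMSO (final), 60 min incubation at 4° C. Signals were converted to % inhibition versus DMSO, and IC50 was obtained by variable-slope nonlinear regression.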
Background: In Alpha technology, singlet oxygen from a donor bead excites a nearby acceptor bead.

[4] abbreviates: Homo sapiens, SW-620, 144 h, SW620 cells, 6 days.

Read-outs that look alike come from different tables or passages of the source.

Sequence of KRAS-G12V/RAF1 (P01116-2 other isoform, or with tags, fused parts or gaps G12V): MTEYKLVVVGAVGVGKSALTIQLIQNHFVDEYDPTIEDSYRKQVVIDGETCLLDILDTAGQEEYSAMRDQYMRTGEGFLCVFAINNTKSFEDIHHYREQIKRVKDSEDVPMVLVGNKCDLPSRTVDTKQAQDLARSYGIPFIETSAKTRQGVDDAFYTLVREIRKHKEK
Sequence of KRAS G12V (P01116-2 other isoform, or with tags, fused parts or gaps G12V): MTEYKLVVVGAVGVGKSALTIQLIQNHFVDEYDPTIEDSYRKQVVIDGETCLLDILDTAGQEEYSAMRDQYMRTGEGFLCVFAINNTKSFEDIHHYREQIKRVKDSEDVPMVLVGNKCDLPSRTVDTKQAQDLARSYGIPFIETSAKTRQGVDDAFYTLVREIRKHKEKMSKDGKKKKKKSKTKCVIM

By DC50 is commonly meant the concentration giving 50% degradation. Low readings indicate degradation at low concentration, high ones degradation only at high concentration. Broadly, the GI50 is the concentration that inhibits growth by half. For orientation: IC50 means the point on the concentration scale where inhibition reaches its midpoint. `CCc1c(F)ccc2cc(O)cc(-c3ncc4c(N5CCC[C@@](C)(O)C5)nc(OCC5(CN6CCN(C7CC8(CCN(c9ccc%10c(c9)CN(C9CCC(=O)NC9=O)C%10=O)CC8)C7)CC6)CC5)nc4c3F)c12` (stereo partly drawn) [Compound 162, 3-[5-[2-[4-[[1-[[7-(8-ethyl-7-fluoro-3-hydroxy-1-naphthyl)-8-fluoro-4-[(3R)-3-hydroxy-3-methyl-1-piperidyl]pyrido[4,3-d]pyrimidin-2-yl]oxymethyl]cyclopropyl]methyl]piperazin-1-yl]-7-azaspiro[3.5]nonan-7-yl]-1-oxo-isoindolin-2-yl]piperidine-2,6-dione]: in test [1], the DC50 was < 1 nM. Moreover, the GI50 in test [2] (setting [4]) was < 10 nM. Also, the IC50 in test [3] was 20 to 200 nM.

Consider `C[C@@]1(O)CCCN(c2nc(OCC3(CN4CC(N5CC(N6CCN(c7ccc8c(c7)CN([C@H]7CCC(=O)NC7=O)C8=O)CC6)C5)C4)CC3)nc3c(F)c(-c4cc(O)cc5ccc(F)c(F)c45)ncc23)C1` [Compound 169, (S)-3-(5-(4-(1′-((1-(((7-(7,8-difluoro-3-hydroxynaphthalen-1-yl)-8-fluoro-4-((R)-3-hydroxy-3-methylpiperidin-1-yl)pyrido[4,3-d]pyrimidin-2-yl)oxy)methyl)cyclopropyl)methyl)-[1,3′-biazetidin]-3-yl)piperazin-1-yl)-1-oxoisoindolin-2-yl)piperidine-2,6-dione], for which the DC50 in test [1] was > 100 nM. In addition, in test [2] (setting [4]), the GI50 was > 100 nM. In test [3], this compound gave an IC50 of 20 to 200 nM.

For `CCc1c(F)ccc2cc(O)cc(-c3ncc4c(N5CCC[C@@](C)(O)C5)nc(OCC5(CN6CC(N7CC(N8CCN(c9ccc%10c(c9)CN([C@H]9CCC(=O)NC9=O)C%10=O)CC8)C7)C6)CC5)nc4c3F)c12` [Compound 137, (S)-3-(5-(4-(1′-((1-(((7-(8-ethyl-7-fluoro-3-hydroxynaphthalen-1-yl)-8-fluoro-4-((R)-3-hydroxy-3-methylpiperidin-1-yl)pyrido[4,3-d]pyrimidin-2-yl)oxy)methyl)cyclopropyl)methyl)-[1,3′-biazetidin]-3-yl)piperazin-1-yl)-1-oxoisoindolin-2-yl)piperidine-2,6-dione], the DC50 in test [1] was in the range of 1 to 10 nM. Moreover, the GI50 in test [2] (setting [4]) is < 10 nM. The compound also yielded an IC50 in test [3] of 20 to 200 nM.

Regarding `CCc1c(F)ccc2cc(O)cc(-c3ncc4c(N5CCC[C@@](C)(O)C5)nc(OCC5(CN6CCC(CN7CCC(N8CCN(c9ccc%10c(c9)CN([C@H]9CCC(=O)NC9=O)C%10=O)CC8)CC7)CC6)CC5)nc4c3F)c12` [Compound 148, (S)-3-(5-(4-(1-((1-((1-(((7-(8-ethyl-7-fluoro-3-hydroxynaphthalen-1-yl)-8-fluoro-4-((R)-3-hydroxy-3-methylpiperidin-1-yl)pyrido[4,3-d]pyrimidin-2-yl)oxy)methyl)cyclopropyl)methyl)piperidin-4-yl)methyl)piperidin-4-yl)piperazin-1-yl)-1-oxoisoindolin-2-yl)piperidine-2,6-dione], the DC50 in test [1] is < 1 nM. In addition, in test [2] (setting [4]), the GI50 was < 10 nM. The IC50 in test [3] was < 20 nM.

For `CCc1c(F)ccc2cc(O)cc(-c3ncc4c(N5CCC[C@@](C)(O)C5)nc(OCC5(CN6CCN(CC7CN(c8ccc9c(c8)CN(C8CCC(=O)NC8=O)C9=O)C7)CC6)CC5)nc4c3F)c12` (stereo partly drawn) [Compound 133, 3-[5-[3-[[4-[[1-[[7-(8-ethyl-7-fluoro-3-hydroxy-1-naphthyl)-8-fluoro-4-[(3R)-3-hydroxy-3-methyl-1-piperidyl]pyrido[4,3-d]pyrimidin-2-yl]oxymethyl]cyclopropyl]methyl]piperazin-1-yl]methyl]azetidin-1-yl]-1-oxo-isoindolin-2-yl]piperidine-2,6-dione], the DC50 in test [1] is < 1 nM. Besides, in test [2] (Homo sapiens, SW-620, 144 h), the GI50 was < 10 nM. The IC50 in test [3] lay within 20 to 200 nM.

For the compound `CCc1c(F)ccc2cc(O)cc(-c3ncc4c(N5CCC[C@@](C)(O)C5)nc(OCC5(CN6CCC(N7CCC8(CCN(c9ccc%10c(c9)CN(C9CCC(=O)NC9=O)C%10=O)CC8)CC7)CC6)CC5)nc4c3F)c12` (stereo partly drawn) [Compound 145, 3-(5-(9-(1-((1-(((7-(8-ethyl-7-fluoro-3-hydroxynaphthalen-1-yl)-8-fluoro-4-((R)-3-hydroxy-3-methylpiperidin-1-yl)pyrido[4,3-d]pyrimidin-2-yl)oxy)methyl)cyclopropyl)methyl)piperidin-4-yl)-3,9-diazaspiro[5.5]undecan-3-yl)-1-oxoisoindolin-2-yl)piperidine-2,6-dione], in test [1], the DC50 fell in the range of 1 to 10 nM. In addition, the GI50 in test [2] (setting [4]) is < 10 nM. In addition, the IC50 in test [3] was < 20 nM.

Turning to `CCc1c(F)ccc2cc(O)cc(-c3ncc4c(N5CCCn6nc(C(=O)N(C)C)c(Cl)c6C5)nc(OCC5(CN6CCC(CN7CCN(c8ccc9c(c8)CN([C@H]8CCC(=O)NC8=O)C9=O)CC7)CC6)CC5)nc4c3F)c12` [Compound 108, (S)-3-chloro-5-(2-((1-((4-((4-(2-(2,6-dioxopiperidin-3-yl)-1-oxoisoindolin-5-yl)piperazin-1-yl)methyl)piperidin-1-yl)methyl)cyclopropyl)methoxy)-7-(8-ethyl-7-fluoro-3-hydroxynaphthalen-1-yl)-8-fluoropyrido[4,3-d]pyrimidin-4-yl)-N,N-dimethyl-5,6,7,8-tetrahydro-4H-pyrazolo[1,5-a][1,4]diazepine-2-carboxamide], in test [1], the DC50 lay within 1 to 10 nM. Besides, the GI50 in test [2] (setting [4]) was < 10 nM. The IC50 in test [3] is > 200 nM.

For `CCc1c(F)ccc2cc(O)cc(-c3ncc4c(N5CCC[C@@](C)(O)C5)nc(OCC5(CN6CCC7(CC6)CC(C)(CN6CCN(c8ccc9c(c8)CN([C@H]8CCC(=O)NC8=O)C9=O)CC6)C7)CC5)nc4c3F)c12` [Compound 150, (3S)-3-[5-[4-[[7-[[1-[[7-(8-ethyl-7-fluoro-3-hydroxy-1-naphthyl)-8-fluoro-4-[(3R)-3-hydroxy-3-methyl-1-piperidyl]pyrido[4,3-d]pyrimidin-2-yl]oxymethyl]cyclopropyl]methyl]-2-methyl-7-azaspiro[3.5]nonan-2-yl]methyl]piperazin-1-yl]-1-oxo-isoindolin-2-yl]piperidine-2,6-dione], the DC50 in test [1] is < 1 nM. Also, the GI50 in test [2] (setting [4]) is < 10 nM. Also, in test [3], the IC50 lay within 20 to 200 nM.

For the compound `CCc1c(F)ccc2cc(O)cc(-c3ncc4c(N5CCOCC6(CCO6)C5)nc(OCC5(CN6CCC7(CC6)CC(CN6CCN(c8ccc9c(c8)CN([C@H]8CCC(=O)NC8=O)C9=O)CC6)C7)CC5)nc4c3F)c12` (stereo partly drawn) [Compound 124, (3S)-3-(5-(4-((7-((1-(((7-(8-ethyl-7-fluoro-3-hydroxynaphthalen-1-yl)-8-fluoro-4-(1,6-dioxa-9-azaspiro[3.6]decan-9-yl)pyrido[4,3-d]pyrimidin-2-yl)oxy)methyl)cyclopropyl)methyl)-7-azaspiro[3.5]nonan-2-yl)methyl)piperazin-1-yl)-1-oxoisoindolin-2-yl)piperidine-2,6-dione], the DC50 in test [1] fell in the range of 1 to 10 nM. In addition, in test [2] (setting [4]), the 50% growth inhibitory concentration (GI50) is < 10 nM. The IC50 in test [3] was 20 to 200 nM.

In test [1], `CCc1cccc2cc(O)cc(-c3ncc4c(N5CCC[C@@](C)(O)C5)nc(OCC5(CN6CCC7(CC6)CC(CN6CCN(c8ccc9c(c8)C(=O)N(C8CCC(=O)NC8=O)C9=O)CC6)C7)CC5)nc4c3F)c12` (stereo partly drawn) [Compound 32, 2-(2,6-dioxopiperidin-3-yl)-5-(4-((7-((1-(((7-(8-ethyl-3-hydroxynaphthalen-1-yl)-8-fluoro-4-((R)-3-hydroxy-3-methylpiperidin-1-yl)pyrido[4,3-d]pyrimidin-2-yl)oxy)methyl)cyclopropyl)methyl)-7-azaspiro[3.5]nonan-2-yl)methyl)piperazin-1-yl)isoindoline-1,3-dione] gave a DC50 of 1 to 10 nM. The GI50 in test [2] (setting [4]) is < 10 nM. Besides, the IC50 in test [3] fell in the range of 20 to 200 nM.

`CCc1c(F)ccc2cc(O)cc(-c3ncc4c(N5CCC[C@@](C)(O)C5)nc(OCC5(CN6CC7(CCC(F)(CN8CCN(c9ccc%10c(c9)CN([C@H]9CCC(=O)NC9=O)C%10=O)CC8)CC7)C6)CC5)nc4c3F)c12` [Compound 178, (S)-3-(5-(4-((2-((1-(((7-(8-ethyl-7-fluoro-3-hydroxynaphthalen-1-yl)-8-fluoro-4-((R)-3-hydroxy-3-methylpiperidin-1-yl)pyrido[4,3-d]pyrimidin-2-yl)oxy)methyl)cyclopropyl)methyl)-7-fluoro-2-azaspiro[3.5]nonan-7-yl)methyl)piperazin-1-yl)-1-oxoisoindolin-2-yl)piperidine-2,6-dione]: in test [1], the DC50 was < 1 nM. In addition, in test [2] (setting [4]), the GI50 is < 10 nM. For the same compound, the IC50 in test [3] was 20 to 200 nM.

Regarding `CCc1cccc2cc(O)cc(-c3ncc4c(N5CCC[C@@](C)(O)C5)nc(OCC5(CN6CC7(CCC(N8CCN(c9ccc%10c(c9)CN([C@H]9CCC(=O)NC9=O)C%10=O)CC8)CC7)C6)CC5)nc4c3F)c12` [Compound 142, (S)-3-(5-(4-(2-((1-(((7-(8-ethyl-3-hydroxynaphthalen-1-yl)-8-fluoro-4-((R)-3-hydroxy-3-methylpiperidin-1-yl)pyrido[4,3-d]pyrimidin-2-yl)oxy)methyl)cyclopropyl)methyl)-2-azaspiro[3.5]nonan-7-yl)piperazin-1-yl)-1-oxoisoindolin-2-yl)piperidine-2,6-dione], the DC50 in test [1] lay within 1 to 10 nM. The GI50 in test [2] (SW620 cells, 6 days) was > 100 nM. The concentration for half-maximal inhibition (IC50) in test [3] is 20 to 200 nM.

Values taken from US20250092039A1, “GLUTARIMIDE-CONTAINING PAN-KRAS-MUTANT DEGRADER COMPOUNDS AND USES THEREOF” (Tiger Biotherapeutics Inc., priority 2022, published 2025).
